Consider 17 compounds from US8133909B2 (Hoffmann-La Roche Inc., priority 2008, dated 2012).

Counter-ions that a name gives are not always drawn.

The target of the assay is T1, human orexin-2 (hOX2) receptors (Homo sapiens, UniProt O43614).
T1 construct: expressed in transfected cells
T1 sequence (O43614 1-444): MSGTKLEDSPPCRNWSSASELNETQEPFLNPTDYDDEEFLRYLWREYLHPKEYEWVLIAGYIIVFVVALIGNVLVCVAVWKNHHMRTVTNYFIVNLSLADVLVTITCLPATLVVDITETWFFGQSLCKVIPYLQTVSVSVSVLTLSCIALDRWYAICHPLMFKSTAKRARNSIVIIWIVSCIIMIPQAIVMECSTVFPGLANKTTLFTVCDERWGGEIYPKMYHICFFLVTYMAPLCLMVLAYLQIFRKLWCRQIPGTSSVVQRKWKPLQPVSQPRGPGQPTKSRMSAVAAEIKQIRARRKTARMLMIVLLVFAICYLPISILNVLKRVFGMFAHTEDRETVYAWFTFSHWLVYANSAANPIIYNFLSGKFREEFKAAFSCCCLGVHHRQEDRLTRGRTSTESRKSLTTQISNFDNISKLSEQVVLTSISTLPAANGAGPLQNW
The experiment in a line: Intracellular Ca2+ mobilization assay (FLIPR), antagonism of orexin-A. To be noted: CHO(dHFr-) cells stably expressing hOX2; orexin-A at EC80 as agonist; antagonist applied 25 min before; Kb=IC50/(1+[A]/EC50); read-out: Kb (μM) OX2R (human). The assay is classed as cell-based. On the procedure: Intracellular Ca^2+ Mobilization Assay
The Chinese Hamster Ovary (dHFr—) mutant cell line stably expressing human orexin-1 (hOX1) or human orexin-2 (hOX2) receptors were maintained in Dulbecco's Modified Eagle Medium (1X) with GlutaMax™ 1, 4500 mg/L D-Glucose and Sodium Pyruvate (Catalog No. 31966-021, Invitrogen, Carlsbad, Calif.), 5% dialyzed fetal calf serum (Catalog No. 26400-044), 100 μg/ml penicillin and 100 μg/ml streptomycin. The cells were seeded at 5×10^4 cells/well in the poly-D-lysine treated, 96-well, black/clear-bottomed plates (Catalog No. BD356640, BD Biosciences, Palo Alto, Calif.). 24 h later, the cells were loaded for 1 h at 37° C. with 4 μM Flou-4 acetoxymethyl ester (Catalog No. F-14202, Molecular Probes, Eugene, Oreg.) in FLIPR buffer (1×HBSS, 20 mM HEPES, 2.5 mM Probenecid). Hanks' Balanced Salt Solution (HBSS) (10×) (catalog No. 14065-049) and HEPES (1M) (catalog No. 15630-056) were purchased from Invitrogen, Carlsbad, Calif. Probenecid (250 mM) (catalog No. P8761) was from Sigma, Buchs, Switzerland. The cells were washed five times with FLIPR buffer to remove excess dye and intracellular calcium mobilization, [Ca^2+]i were measured using a Fluorometric Imaging Plate Reader (FLIPR-96, Molecular Devices, Menlo Park, Calif.) as described previously (Malherbe et al., Mol. Pharmacol., 64, 823-832, 2003). Orexin A (catalog No. 1455, Toris Cookson Ltd, Bristol, UK) was used as agonist. Orexin A (50 mM stock solution in DMSO) was diluted in FLIPR buffer +0.1% BSA. The EC50 and EC80 values of orexin-A were measured daily from standard agonist concentration-response curves in CHO(dHFr—)—OX1R and —OX2R cell lines. All compounds were dissolved in 100% DMSO. Inhibition curves were determined by addition of 11 concentrations (0.0001-10 μM) of inhibitory compounds and using EC80 value of orexin-A as agonist (a concentration which gave 80% of max agonist response, determined daily). The antagonists were applied 25 min (incubation at 37° C.) before the application of the agonist. Responses were measured as peak increase in fluorescence minus basal, normalized to the maximal stimulatory effect induced by EC80 value of orexin-A or orexin- B. Inhibition curves were fitted according to the Hill equation: y=100/(1+(x/IC50)^nH), where nH=slope factor using Excel-fit 4 software (Microsoft). Kb values were calculated according to the following equation Kb=IC50/(1+[A]/EC50) where A is the concentration of agonist added which is very close to agonist EC80 value, and IC50 and EC50 values were derived from the antagonist inhibition and orexin-A or B agonist curves, respectively.
For orientation: A change in cytosolic calcium serves as a functional read-out for many receptors and channels.
For `O=C([C@@H](O)c1ccc(F)cc1)N(CCc1ccc(C(F)(F)F)nc1)c1ccc2c(c1)CCCC2` [Example 60, (S)-2-(4-Fluoro-phenyl)-2-hydroxy-N-(5,6,7,8-tetrahydro-naphthalen-2-yl)-N-[2-(6-trifluoromethyl-pyridin-3-yl)-ethyl]-acetamide], the Kb stood at 0.0053 µM.
Under `COc1cc(N(CCc2ccc(C(F)(F)F)nc2)C(=O)[C@@H](O)c2ccc(F)cc2)ccc1C` [Example 61, (S)-2-(4-Fluoro-phenyl)-2-hydroxy-N-(3-methoxy-4-methyl-phenyl)-N-[2-(6-trifluoromethyl-pyridin-3-yl)-ethyl]-acetamide] stands 0.0026 µM.
Under `O=C([C@@H](O)c1ccccc1)N(CCc1ccc(C(F)(F)F)nc1)c1ccc2c(c1)CCCO2` [Example 62] stands 0.011 µM.
Take `O=C([C@@H](O)c1ccccc1)N(CCc1ccc(C(F)(F)F)nc1)c1ccc2c(c1)[C@@H](O)CCO2` [Example 63, (S)-2-Hydroxy-N-((S)-4-hydroxy-chroman-6-yl)-2-phenyl-N-[2-(6-trifluoromethyl-pyridin-3-yl)-ethyl]-acetamide]: the Kb turned out to be 0.0243 µM.
Under `CC(=O)O[C@H](C(=O)N(CCc1ccc(C(F)(F)F)cn1)c1ccc(C)c(C)c1)c1ccccc1` [Example 65, Acetic acid (S)-{(3,4-dimethyl-phenyl)-[2-(5-trifluoromethyl-pyridin-2-yl)-ethyl]-carbamoyl}-phenyl-methyl ester] stands 0.0475 µM; under `Cc1ccc(N(CCc2ccc(Cl)cn2)C(=O)[C@@H](O)c2ccccc2)cc1C` [Example 66, (S)—N-[2-(5-Chloro-pyridin-2-yl)-ethyl]-N-(3,4-dimethyl-phenyl)-2-hydroxy-2-phenyl-acetamide], 0.0057 µM.
With `Cc1csc(CCN(C(=O)[C@@H](N)c2ccccc2)c2ccc(C)c(C)c2)n1` [Example 67, (S)-2-Amino-N-(3,4-dimethyl-phenyl)-N-[2-(4-methyl-thiazol-2-yl)-ethyl]-2-phenyl-acetamide hydrochloride] the figure was 0.073 µM; with `Cc1ccc(N(CCc2ccc(F)cn2)C(=O)[C@@H](O)c2ccccc2)cc1C` [Example 68, (S)—N-(3,4-Dimethyl-phenyl)-N-[2-(5-fluoro-pyridin-2-yl)-ethyl]-2-hydroxy-2-phenyl-acetamide], 0.0232 µM; with `Cc1cc(CCN(C(=O)[C@@H](O)c2ccccc2)c2ccc(C)c(C)c2)on1` [Example 70, (S)—N-(3,4-Dimethyl-phenyl)-2-hydroxy-N-[2-(3-methyl-isoxazol-5-yl)-ethyl]-2-phenyl-acetamide], 0.0863 µM.
Take `Cc1ccc(N(CCc2ccc(C(F)(F)F)cn2)C(=O)[C@@H](O)c2ccc(F)cc2)cc1F` [Example 80, (S)—N-(3-Fluoro-4-methyl-phenyl)-2-(4-fluoro-phenyl)-2-hydroxy-N-[2-(5-trifluoromethyl-pyridin-2-yl)-ethyl]-acetamide]: the Kb amounted to 0.0289 µM.
With `Cc1cc(N(CCc2ccc(C(F)(F)F)cn2)C(=O)[C@@H](O)c2ccc(F)cc2)ccc1F` [Example 81, (S)—N-(4-Fluoro-3-methyl-phenyl)-2-(4-fluoro-phenyl)-2-hydroxy-N-[2-(5-trifluoromethyl-pyridin-2-yl)-ethyl]-acetamide] the figure was 0.0197 µM.
On to `O=C([C@@H](O)c1ccc(F)cc1)N(CCc1ccc(C(F)(F)F)cn1)c1ccc2c(c1)CCC2` [Example 86, (S)-2-(4-Fluoro-phenyl)-2-hydroxy-N-indan-5-yl-N-[2-(5-trifluoromethyl-pyridin-2-yl)-ethyl]-acetamide], for which the Kb is 0.0378 µM.
Under `O=C([C@@H](O)c1ccc(F)cc1)N(CCc1ccc(C(F)(F)F)cn1)c1ccc2c(c1)CCO2` [Example 87, (S)—N-(2,3-Dihydro-benzofuran-5-yl)-2-(4-fluoro-phenyl)-2-hydroxy-N-[2-(5-trifluoromethyl-pyridin-2-yl)-ethyl]-acetamide] stands 0.0198 µM.
Regarding `COc1cc(N(CCc2ccc(C(F)(F)F)cn2)C(=O)[C@@H](O)c2ccc(F)cc2)ccc1F` [Example 92, (S)—N-(4-Fluoro-3-methoxy-phenyl)-2-(4-fluoro-phenyl)-2-hydroxy-N-[2-(5-trifluoromethyl-pyridin-2-yl)-ethyl]-acetamide], the Kb came out at 0.0146 µM.
Under `Cc1n[nH]c2ccc(N(CCc3ccc(C(F)(F)F)nc3)C(=O)[C@@H](O)c3ccc(F)cc3)cc12` [Example 106, (S)-2-(4-Fluoro-phenyl)-2-hydroxy-N-(3-methyl-1H-indazol-5-yl)-N-[2-(6-trifluoromethyl-pyridin-3-yl)-ethyl]-acetamide] stands 0.0249 µM; under `Cc1nn(C)c2ccc(N(CCc3ccc(C(F)(F)F)nc3)C(=O)[C@@H](O)c3ccc(F)cc3)cc12` [Example 107, (S)—N-(1,3-Dimethyl-1H-indazol-5-yl)-2-(4-fluoro-phenyl)-2-hydroxy-N-[2-(6-trifluoromethyl-pyridin-3-yl)-ethyl]-acetamide], 0.0046 µM.
“(S)-2-Hydroxy-N-(3-methoxy-phenyl)-2-phenyl-N-[2-(6-trifluoromethyl-pyridin-3-yl)-ethyl]-acetamide [Example 58]”: the Kb is 0.0167 µM.

In general, Kb refers to the affinity of an antagonist, worked out from how it opposes an agonist.
